The source of these data is ChEMBL document CHEMBL3621190, “Fused Morphlinopyrimidines and Methods of Use Thereof” (ACS Med Chem Lett, 2015).

The structures appear in SMILES notation.

The experiment addresses Gamma-secretase. Description: Inhibition of gamma-secretase in human H4 cells expressing human wild type […] cDNA assessed as reduction in amyloid beta peptides incubated for 16 to 18 hrs by ELISA method. Type of experiment: cell-based.

Consider `COc1cc(N2CCC(Nc3ncc4c(n3)N(c3ccccc3C)CCO4)CC2)ccn1`, for which the IC50 was 58.5 nM.

With `COc1cc(N2CCC(Nc3ncc4c(n3)N(c3ccccc3)CCO4)CC2)ccn1`, the IC50 stood at 25.2 nM. In the case of `COc1cc(N2CCC(Nc3ncc4c(n3)N(c3ccc(F)cc3C(F)(F)F)CCO4)CC2)ccn1`, the IC50 came to 11.9 nM. The result for `Clc1cc(N2CCC(Nc3ncc4c(n3)N(c3ccccc3)CCO4)CC2)ccn1` reads 54.3 nM; that for `COc1cc(N2CCC(Nc3ncc4c(n3)N(c3ccccc3Cl)CCO4)CC2)ccn1`, 54.8 nM. The figure for `COc1cc(N2CCC(Nc3ncc4c(n3)N(c3ccc(F)cc3F)CCO4)CC2)ccn1` is 72.4 nM. The figure for `COc1cc(N2CCC(Nc3ncc4c(n3)N(c3ccccc3OC(F)(F)F)CCO4)CC2)ccn1` is 20.8 nM; for `COc1cc(N2CCC(Nc3ncc4c(n3)N(c3ccc(F)cc3)CCO4)CC2)ccn1` it is 30.5 nM; for `COc1cc(N2CCC(Nc3ncc4c(n3)N(c3ccc(Cl)cc3)CCO4)CC2)ccn1` it is 25.4 nM. `COc1cc(N2CCC(Nc3ncc4c(n3)N(c3cc(F)cc(F)c3)CCO4)CC2)ccn1`: the IC50 was determined as 25.6 nM. For `COc1cc(N2CCC(Nc3ncc4c(n3)N(c3cc(F)c(F)c(F)c3)CCO4)CC2)ccn1`, the IC50 is 56 nM. The figure for `Cc1ccccc1N1CCOc2cnc(NC3CCN(c4ccnc(Cl)c4)CC3)nc21` is 90 nM.

In general, IC50 refers to the point on the concentration scale where inhibition reaches its midpoint.
